Laboratory results taken from US11180462B2, “Microbiocidal oxadiazole derivatives” (SYNGENTA PARTICIPATIONS AG, priority 2015, dated 2021).

These molecules were tested on Glomerella lagenarium (Colletotrichum lagenarium) (assay: Fungicidal activity against Glomerella lagenarium (Colletotrichum lagenarium) liquid culture / cucumber / preventative (anthracnose)). Settings: Colletotrichum orbiculare; 20 ppm in the applied formulation; liquid culture (PDB), growth inhibition measured photometrically after 3 to 4 days; compared to untreated control; read-out: disease control.
Type: cell-based
Procedure, shortened: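 Photometric read-out of fungal growth after 2–7 days, expressed as percent antifungal activity versus untreated check. Cryo-stored conidia in PDB; compound at 20 ppm; dark, 24 °C, 96% RH.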

Question: `O=C(C=CC(F)(F)F)N(Cc1ccc(-c2noc(C(F)(F)F)n2)cc1)CC1CCCO1` (centres unmarked) [Compound 1.425, 4,4,4-trifluoro-N-(tetrahydrofuran-2-ylmethyl)-N-[[4-[5-(trifluoromethyl)-1,2,4-oxadiazol-3-yl]phenyl]methyl]-but-2-enamide] was tested. Which inhibition of growth at 20 ppm did it give?
Answer: ≥ 80%

Question: `CC1CC1C(=O)N(Cc1ccc(-c2noc(C(F)(F)F)n2)cc1)CC1CCCO1` (centres unmarked) [Compound 1.428, 2-methyl-N-(tetrahydrofuran-2-ylmethyl)-N-[[4-[5-(trifluoromethyl)-1,2,4-oxadiazol-3-yl]phenyl]methyl]-cyclopropane-carboxamide] was tested. Which inhibition of growth at 20 ppm did it give?
Answer: ≥ 80%

Question: `CC(C)(C)CC(=O)N(Cc1ccc(-c2noc(C(F)(F)F)n2)cc1)CC1CCCO1` (centres unmarked) [Compound 1.429, 3,3-dimethyl-N-(tetrahydrofuran-2-ylmethyl)-N-[[4-[5-(trifluoromethyl)-1,2,4-oxadiazol-3-yl]phenyl]methyl]-butanamide] was tested. Which inhibition of growth at 20 ppm did it give?
Answer: ≥ 80%

Question: With `CC(=O)C=CC(=O)N(Cc1ccc(-c2noc(C(F)(F)F)n2)cc1)CC1CCCO1` (centres unmarked) [Compound 1.439, 4-oxo-N-(tetrahydrofuran-2-ylmethyl)-N-[[4-[5-(trifluoromethyl)-1,2,4-oxadiazol-3-yl]phenyl]methyl]-pent-2-enamide] as the molecule, how does the inhibition of growth at 20 ppm read?
Answer: ≥ 80%

Question: `N#CCC(=O)N(Cc1ccc(-c2noc(C(F)(F)F)n2)cc1)Cc1ccco1` [Compound 1.470, 2-cyano-N-(2-furylmethyl)-N-[[4-[5-(trifluoromethyl)-1,2,4-oxadiazol-3-yl]phenyl]methyl]-acetamide] was tested. Which inhibition of growth at 20 ppm did it give?
Answer: ≥ 80%

Question: For `COCCC(=O)N(Cc1ccc(-c2noc(C(F)(F)F)n2)cc1)OCC=C(Cl)Cl` [Compound 1.533, N-(3,3-dichloroallyloxy)-3-methoxy-N-[[4-[5-(trifluoromethyl)-1,2,4-oxadiazol-3-yl]phenyl]methyl]-propanamide], which inhibition of growth at 20 ppm is on record?
Answer: ≥ 80%

Question: How did the inhibition of growth at 20 ppm turn out when `CCC(=O)N(Cc1ccc(-c2noc(C(F)(F)F)n2)cc1)OCC=C(Cl)Cl` [Compound 1.534, N-(3,3-dichloroallyloxy)-N-[[4-[5-(trifluoromethyl)-1,2,4-oxadiazol-3-yl]phenyl]methyl]-propanamide] was run?
Answer: ≥ 80%

Question: `COCC(=O)N(Cc1ccc(-c2noc(C(F)(F)F)n2)cc1)OCC=C(Cl)Cl` [Compound 1.535, N-(3,3-dichloroallyloxy)-2-methoxy-N-[[4-[5-(trifluoromethyl)-1,2,4-oxadiazol-3-yl]phenyl]methyl]-acetamide] was tested. Which inhibition of growth at 20 ppm did it give?
Answer: ≥ 80%

Question: With `CC1CC1C(=O)N(Cc1ccc(-c2noc(C(F)(F)F)n2)cc1)OCC=C(Cl)Cl` (centres unmarked) [Compound 1.536, N-(3,3-dichloroallyloxy)-2-methyl-N-[[4-[5-(trifluoromethyl)-1,2,4-oxadiazol-3-yl]phenyl]methyl]-cyclopropane-carboxamide] as the molecule, how does the inhibition of growth at 20 ppm read?
Answer: ≥ 80%

Question: For `O=C(CCl)N(Cc1ccc(-c2noc(C(F)(F)F)n2)cc1)OCC=C(Cl)Cl` [Compound 1.538, 2-chloro-N-(3,3-dichloroallyloxy)-N-[[4-[5-(trifluoromethyl)-1,2,4-oxadiazol-3-yl]phenyl]methyl]-acetamide], which inhibition of growth at 20 ppm is on record?
Answer: ≥ 80%

Question: `CC(C)C(=O)N(Cc1ccc(-c2noc(C(F)(F)F)n2)cc1)OCC=C(Cl)Cl` [Compound 1.539, N-(3,3-dichloroallyloxy)-2-methyl-N-[[4-[5-(trifluoromethyl)-1,2,4-oxadiazol-3-yl]phenyl]methyl]-propanamide] was tested. Which inhibition of growth at 20 ppm did it give?
Answer: ≥ 80%

Question: With `O=C(C1CC1(F)F)N(Cc1ccc(-c2noc(C(F)(F)F)n2)cc1)OCC=C(Cl)Cl` (centres unmarked) [Compound 1.540, N-(3,3-dichloroallyloxy)-2,2-difluoro-N-[[4-[5-(trifluoromethyl)-1,2,4-oxadiazol-3-yl]phenyl]methyl]-cyclopropane-carboxamide] as the molecule, how does the inhibition of growth at 20 ppm read?
Answer: ≥ 80%

Question: With `CCCC(=O)N(Cc1ccc(-c2noc(C(F)(F)F)n2)cc1)OCC=C(Cl)Cl` [Compound 1.541, N-(3,3-dichloroallyloxy)-N-[[4-[5-(trifluoromethyl)-1,2,4-oxadiazol-3-yl]phenyl]methyl]-butanamide] as the molecule, how does the inhibition of growth at 20 ppm read?
Answer: ≥ 80%

Question: With `CCC(C)C(=O)N(Cc1ccc(-c2noc(C(F)(F)F)n2)cc1)OCC=C(Cl)Cl` (centres unmarked) [Compound 1.542, N-(3,3-dichloroallyloxy)-2-methyl-N-[[4-[5-(trifluoromethyl)-1,2,4-oxadiazol-3-yl]phenyl]methyl]-butanamide] as the molecule, how does the inhibition of growth at 20 ppm read?
Answer: ≥ 80%

Question: For `COCCCC(=O)N(Cc1ccc(-c2noc(C(F)(F)F)n2)cc1)OCC=C(Cl)Cl` [Compound 1.543, N-(3,3-dichloroallyloxy)-4-methoxy-N-[[4-[5-(trifluoromethyl)-1,2,4-oxadiazol-3-yl]phenyl]methyl]-butanamide], which inhibition of growth at 20 ppm is on record?
Answer: ≥ 80%

Question: With `CC1(C(=O)N(Cc2ccc(-c3noc(C(F)(F)F)n3)cc2)OCC=C(Cl)Cl)COC1` [Compound 1.544, N-(3,3-dichloroallyloxy)-3-methyl-N-[[4-[5-(trifluoromethyl)-1,2,4-oxadiazol-3-yl]phenyl]methyl]-oxetane-3-carboxamide] as the molecule, how does the inhibition of growth at 20 ppm read?
Answer: ≥ 80%

Question: With `O=C(C1CC1F)N(Cc1ccc(-c2noc(C(F)(F)F)n2)cc1)OCC=C(Cl)Cl` (centres unmarked) [Compound 1.545, N-(3,3-dichloroallyloxy)-2-fluoro-N-[[4-[5-(trifluoromethyl)-1,2,4-oxadiazol-3-yl]phenyl]methyl]-cyclopropane-carboxamide] as the molecule, how does the inhibition of growth at 20 ppm read?
Answer: ≥ 80%

Question: `COC(C)C(=O)N(Cc1ccc(-c2noc(C(F)(F)F)n2)cc1)OCC=C(Cl)Cl` (centres unmarked) [Compound 1.546, N-(3,3-dichloroallyloxy)-2-methoxy-N-[[4-[5-(trifluoromethyl)-1,2,4-oxadiazol-3-yl]phenyl]methyl]-propanamide] was tested. Which inhibition of growth at 20 ppm did it give?
Answer: ≥ 80%

Question: Which inhibition of growth at 20 ppm does the source give for `O=C(C1OCCO1)N(Cc1ccc(-c2noc(C(F)(F)F)n2)cc1)OCC=C(Cl)Cl` [Compound 1.547] here?
Answer: ≥ 80%

Question: For `O=C(C1CC1)N(Cc1ccc(-c2noc(C(F)(F)F)n2)cc1)OCC=C(Cl)Cl` [Compound 1.548, N-(3,3-dichloroallyloxy)-N-[[4-[5-(trifluoromethyl)-1,2,4-oxadiazol-3-yl]phenyl]methyl]-cyclopropane-carboxamide], which inhibition of growth at 20 ppm is on record?
Answer: ≥ 80%

Question: Which inhibition of growth at 20 ppm does the source give for `COCCC(=O)N(Cc1ccc(-c2noc(C(F)(F)F)n2)cc1)OCc1ccc(Cl)cc1` [Compound 1.549, N-[(4-chlorophenyl)-methoxy]-3-methoxy-N-[[4-[5-(trifluoromethyl)-1,2,4-oxadiazol-3-yl]phenyl]methyl]-propanamide] here?
Answer: ≥ 80%

Question: How did the inhibition of growth at 20 ppm turn out when `COCC(=O)N(Cc1ccc(-c2noc(C(F)(F)F)n2)cc1)OCc1ccc(Cl)cc1` [Compound 1.551, N-[(4-chlorophenyl)-methoxy]-2-methoxy-N-[[4-[5-(trifluoromethyl)-1,2,4-oxadiazol-3-yl]phenyl]methyl]-acetamide] was run?
Answer: ≥ 80%

Question: `O=C(CCl)N(Cc1ccc(-c2noc(C(F)(F)F)n2)cc1)OCc1ccc(Cl)cc1` [Compound 1.553, 2-chloro-N-[(4-chlorophenyl)-methoxy]-N-[[4-[5-(trifluoromethyl)-1,2,4-oxadiazol-3-yl]phenyl]methyl]-acetamide] was tested. Which inhibition of growth at 20 ppm did it give?
Answer: ≥ 80%

Question: For `CCCC(=O)N(Cc1ccc(-c2noc(C(F)(F)F)n2)cc1)OCc1ccc(Cl)cc1` [Compound 1.554, N-[(4-chlorophenyl)-methoxy]-N-[[4-[5-(trifluoromethyl)-1,2,4-oxadiazol-3-yl]phenyl]methyl]-butanamide], which inhibition of growth at 20 ppm is on record?
Answer: ≥ 80%

Question: With `COCCCC(=O)N(Cc1ccc(-c2noc(C(F)(F)F)n2)cc1)OCc1ccc(Cl)cc1` [Compound 1.555, N-[(4-chlorophenyl)-methoxy]-4-methoxy-N-[[4-[5-(trifluoromethyl)-1,2,4-oxadiazol-3-yl]phenyl]methyl]-butanamide] as the molecule, how does the inhibition of growth at 20 ppm read?
Answer: ≥ 80%

Question: `CC1(C(=O)N(Cc2ccc(-c3noc(C(F)(F)F)n3)cc2)OCc2ccc(Cl)cc2)COC1` [Compound 1.556, N-[(4-chlorophenyl)-methoxy]-3-methyl-N-[[4-[5-(trifluoromethyl)-1,2,4-oxadiazol-3-yl]phenyl]methyl]-oxetane-3-carboxamide] was tested. Which inhibition of growth at 20 ppm did it give?
Answer: ≥ 80%

Question: For `O=C(C1CCCO1)N(Cc1ccc(-c2noc(C(F)(F)F)n2)cc1)OCc1ccc(Cl)cc1` (centres unmarked) [Compound 1.557, N-[(4-chlorophenyl)-methoxy]-N-[[4-[5-(trifluoromethyl)-1,2,4-oxadiazol-3-yl]phenyl]methyl]-tetrahydrofuran-2-carboxamide], which inhibition of growth at 20 ppm is on record?
Answer: ≥ 80%

Question: With `O=C(C1CC1F)N(Cc1ccc(-c2noc(C(F)(F)F)n2)cc1)OCc1ccc(Cl)cc1` (centres unmarked) [Compound 1.558, N-[(4-chlorophenyl)-methoxy]-2-fluoro-N-[[4-[5-(trifluoromethyl)-1,2,4-oxadiazol-3-yl]phenyl]methyl]-cyclopropane-carboxamide] as the molecule, how does the inhibition of growth at 20 ppm read?
Answer: ≥ 80%

Question: With `COC(C)C(=O)N(Cc1ccc(-c2noc(C(F)(F)F)n2)cc1)OCc1ccc(Cl)cc1` (centres unmarked) [Compound 1.559, N-[(4-chlorophenyl)-methoxy]-2-methoxy-N-[[4-[5-(trifluoromethyl)-1,2,4-oxadiazol-3-yl]phenyl)methyl]-propanamide] as the molecule, how does the inhibition of growth at 20 ppm read?
Answer: ≥ 80%

Question: Which inhibition of growth at 20 ppm does the source give for `O=C(C1OCCO1)N(Cc1ccc(-c2noc(C(F)(F)F)n2)cc1)OCc1ccc(Cl)cc1` [Compound 1.560, N-[(4-chlorophenyl)-methoxy]-N-[[4-[5-(trifluoromethyl)-1,2,4-oxadiazol-3-yl]phenyl]methyl]-1,3-dioxolane-2-carboxamide] here?
Answer: ≥ 80%

Question: For `O=C(C1CC1)N(Cc1ccc(-c2noc(C(F)(F)F)n2)cc1)OCc1ccc(Cl)cc1` [Compound 1.561, N-[(4-chlorophenyl)-methoxy]-N-[[4-[5-(trifluoromethyl)-1,2,4-oxadiazol-3-yl]phenyl]methyl]-cyclopropane-carboxamide], which inhibition of growth at 20 ppm is on record?
Answer: ≥ 80%

Question: `CCCCON(Cc1ccc(-c2noc(C(F)(F)F)n2)cc1)C(=O)CC` [Compound 1.588, N-butoxy-N-[[4-[5-(trifluoromethyl)-1,2,4-oxadiazol-3-yl]phenyl]methyl]-propanamide] was tested. Which inhibition of growth at 20 ppm did it give?
Answer: ≥ 80%
